Reference: patent publication US8263642B2, “Antimicrobial compounds and methods of use thereof” (Vanderbilt University, priority 2008, dated 2012)

Experiments:
[1] = tested on: HssRS-dependent hrtAB expression; test: Luminescence-based assay to monitor HssRS-dependent hrtAB expression (phrtABlux reporter), Newman; assay type: cell-based, Staphylococcus aureus; details: Newman; for activation at 0.0825 µM: Staphylococcus aureus, NEWMAN, read-out: % Lumi, luminescence induced by the compound compared to the heme control (82.5 nM) in the same plate; for Luminescence: raw luminescence value obtained in a luminometer
Experimental: (§1) With reference to Table 1, “Luminescence” refers to the raw luminescence value obtained in a luminomter. “Control (82.5 nm)” refers to the luminescence value obtained from heme at 82.5 nM as a positive control in the same plate as the experimental. “% lum” is the percentage of luminescence induced by the compound as compared to the heme control in the same plate. […] All of these assays are described in the application. […] “N/T” indicates the test was not performed.
A hrtAB-driven expression system was created in the pXen vector system (Xenogen) (Francis, K. P., D. Joh, C. Bellinger-Kawahara, M. J. Hawkinson, T. F. Purchio, and P. R. Contag. 2000. Monitoring bioluminescent Staphylococcus aureus infections in living mice using a novel luxABCDE construct. Infect Immun 68:3594-3600). This vector contains a promoterless luxCDABE operon from Photorabdus luminescens which produces blue green light when expressed. The luxCDABE encodes for a fatty acid reductase (LuxCDE) that produces a long chain fatty aldehyde which, when combined with cellular flavin mononucleotide, is oxidized by a luciferase (LuxAB) to produce light. Therefore, this system is useful in that it bypasses the need for substrate addition and is capable of generating light in the absence of any added reagents. Furthermore, the luminescent signal produced by the combined activities of LuxAB and LuxCDE is of sufficient intensity to be visualized in unmanipulated intact bacteria.
To establish an assay that measures HssRS-dependent expression of luxCDABE, the promoter for hrtAB upstream of luxCDABE was cloned and transformed this vector (phrtABlux) into wildtype and ΔhssR S. aureus. A promoterless vector (plux) and a plasmid containing luxCDABE under the control of a constitutive promoter (psrtAlux) (Mazmanian, S. K., G. Liu, H. Ton-That, and O. Schneewind. 1999. “Staphylococcus aureus sortase, an enzyme that anchors surface proteins to the cell wall.” Science 285:760-763) were included as negative and positive controls, respectively. Initially, wildtype S. aureus harboring either plux, phrtABlux, or psrtAlux were plated on solid medium that either lacked heme or contained 4 μM heme. Only wildtype S. aureus containing psrtAlux produced light on solid media regardless of the presence or absence of heme. […] Light was not produced by bacteria containing plux in either condition.
To adapt this system for a HTS to measure ligand recognition by HssRS, luminescence of wildtype and ΔhssR harboring the above listed plasmids in liquid media with or without heme was measured. […] Taken together, these experiments establish a whole cell […] assay that can identify small molecule modifiers of HssRS. This screen, in some aspects, can identify molecules that can be used as molecular probes in structure-function analyses to determine the mechanism by which S. aureus sense host heme.
Upon staphylococcal exposure to heme, HssRS senses heme and activates expression of hrtAB. This process can be measured using a reporter assay that employs a vector encoding the light-producing luxCDABE operon under the control of the hrtAB promoter. This assay results in whole cell luminescence upon HssRS-dependent activation of hrtAB, forming the foundation for the development of an assay suitable for high-throughput screens for small molecule activators of HssRS.
To develop an automated HTS format, S. aureus wildtype and ΔhssR harboring reporter constructs (psrtAlux, phrtAlux, plux) can be grown for 15 hours at 37° C. in tryptic soy broth (TSB) containing 10 μg/ml chloramphenicol. The addition of chloramphenicol is useful to ensure that the staphylococci propagate the reporter plasmid upon cell division. Following growth, bacterial cultures can be normalized and 2×10^7 cells (approximately 2 μl) can be added to individual wells of black walled, clear bottomed, 96-well plates. […]

[2] = tested on: hrtAB-driven expression of the xylE reporter gene; test: XylE reporter assay (hrtAB promoter-xylE), Newman; assay type: cell-based, Staphylococcus aureus; details: for XylE (0.05): level of XylE induction at 0.05 uM of the compound; for XylE (0.5): level of XylE induction at 0.5 uM of the compound; for XylE (5.0): level of XylE induction at 5.0 uM of the compound; for XylE (50.0): level of XylE induction at 50.0 uM of the compound
Experimental: as §1
Compounds that activate HssRS-driven hrtAB expression in the luciferase-based screen can be subjected to two separate counter screens to confirm these compounds as active hits. First, compounds of interest can be tested for their ability to activate expression of hrtAB in the XylE expression assay described hereinbelow. This is an in vitro assay that measures hrtAB-driven expression of the xylE reporter gene. The XylE-based reporter assay utilizes slightly more manipulations than the primary luciferase-based screen. […] It should be appreciated that a shortcoming of this counter screen is that it measures reporter gene expression, which is a similar activity as that measured in the primary assay. To address this shortcoming, compounds that are positive in both XylE- and luciferase-based assays can be subjected to a second counter screen as described hereinbelow.
S. aureus strains harboring the appropriate reporter construct were inoculated into 500 μl of TSB containing 10 μg/ml chloramphenicol in 1.5 ml tubes. Cultures were grown O/N at 37° C. with shaking. Bacteria were pelleted by centrifugation and spent medium was aspirated. The pellet was washed once with 500 μl of 20 mM potassium phosphate, pH 7.6, and resuspended in 150 μl of 100 mM potassium phosphate buffer, pH 8.0, 10% (v/v) acetone, 25 μg/ml lysostaphin. After 20 minute incubation at 37° C. and 5 minute incubation on ice, samples were centrifuged at 20,000 g for 30 minutes at 4° C. 1-10 μl of supernatant was added to a 96-well plate and 200 μl of 100 mM potassium phosphate, pH 8.0, 0.2 mM pyrocatechol was added to each well. Formation of 2-hydroxymuconic semialdehyde was tracked by measuring the absorbance at 375 nm every minute for 30 minutes on a Varian MP 50 microplate reader. Protein concentration in samples was determined by BCA (Pierce). One unit of specific activity of XylE in a sample is defined as the formation of 1 nmol of 2-hydroxymuconic semialdehyde per minute per milligram of cellular protein at 30° C. (Chien, Y., Manna, A. C., Projan, S. J., and Cheung, A. L. 1999, “SarA, a global regulator of virulence determinants in Staphylococcus aureus, binds to a conserved motif essential for sar-dependent gene regulation. J. Biol. Chem. 274, 37169-37176).
The hrtAB intergenic region was fused to the xylE structural gene by PCR-SOE. In the first reaction, primer P1B:[…] and P2B:[…] were used to amplify the hrtAB intergenic region from S. aureus strain Newman genomic DNA. In the second PCR reaction primers P3B:[…] and P4B:[…] were used to amplify the xylE structural gene using pALC1639 template DNA (provided by Dr. Ambrose Cheung) and PCR product purified using a Qiagen gel extraction kit. For the PCRSOE reaction, a 1:300 dilution of purified reaction 1 and reaction 2 PCR products was mixed and amplified by PCR using […]. This yielded a construct in which the hrtAB intergenic region is fused to the xylE gene in such a manner that the position of the start codon for xylE corresponds to the position of the start codon for […] in the hrtAB locus. The hrtAB promoter-xylE fusion DNA was then subcloned into pOS1. As a control we also constructed a promoterless xylE vector. The xylE gene was amplified from pACL1639 template DNA using the primers P1C:[…] and P2C:[…] and then cloned into the pOS1 vector.

Row | SMILES | activation at 0.0825 µM [1] | Luminescence [1] | XylE (0.05) [2] | XylE (0.5) [2] | XylE (5.0) [2] | XylE (50.0) [2]
1 | O=[N+]([O-])c1ccc(O)c(C2NN=C(Cc3ccccc3)S2)c1 (centres unmarked) | 871% | 2805 | 0.02 | 0.05 | 1 | 1
2 | O=[N+]([O-])c1ccc(O)c(/C=N/c2ccccc2-c2nc3ccccc3s2)c1 | 630% | 2904 | 1 | 50 | 1 | 1
3 | O=C(NC(=S)Nc1ccc(-c2nc3ccccc3s2)cc1)c1ccccc1[N+](=O)[O-] [drawing 23] | 374% | 1794 | 0.09 | 0.07 | 0.08 | 0.2
4 | CCc1ccc2oc(-c3ccc(NC(=O)c4ccccc4OC)cc3)nc2c1 |  | 2392 |  | 0.05 | 2 | 3
5 | COc1ccc(Cl)cc1NC(=O)Nc1ccc(Cl)cc1 | 180% | 586 | 1 | 0.03 | 0 | 0.03
6 | O=S(=O)(Nc1cc(Cl)ccc1Cl)c1ccc(Cl)cc1 | 146% | 618 | 0.02 | 0.07 | 0.5 | 0.1
7 | COc1ccc(C2CC(C3C(=O)c4ccccc4C3=O)=NN2)cc1 (centres unmarked) |  | 1888 |  | 0.08 | 5 | 0.09
8 | Cc1cccc(NC(=S)N/N=C/c2cc(Br)ccc2O)c1 | 161% | 589 | 0.09 | 0.2 | 0 | 0
9 | CCOC(=O)c1c(C)[nH]c2c1-c1cc(Br)ccc1C(=O)C2=O | 240% | 2896 | 1 | 1 | 0.09 | 0.3
10 | CC(C)c1ccc(NS(=O)(=O)c2ccc3[nH]c(-c4ccccc4)nc3c2)cc1 |  | 2146 | 1 | 1 | 9 | 1
11 | Cc1cccc(C(=O)N2N=C(c3cccc(Br)c3)CC2(C)C(F)(F)F)c1 (centres unmarked) | 572% | 1683 |  | 0.04 | 0.08 | 0.1
12 | NS(=O)(=O)c1ccc(Nc2nc(-c3ccc(Cl)cc3)cs2)cc1 |  | 4946 | 0.04 | 1 | 1 | 0.02
